Measurements from US9862679B2, “Potent and selective inhibitors of monoamine transporters; method of making; and use thereof” (priority 2013, dated 2018).

Columns and labels:
[1] = Brain concentrations in mice after IV and PO dosing at 10 mg/kg; conditions: for concentration at 0.5 h / concentration at 2 h: male, CD1, mouse, in vivo, 10 mg/kg
Protocol: (§1) Plasma was harvested from blood by centrifugation. Additionally at two selected time points (i.e. 30 min and 2 h) brains were collected following both oral and IV dosing. Samples were extracted from plasma by a single one-step protein precipitation method (as described in bioanalysis section below). For brain tissue, whole brains were weighed and homogenized in two times the volume of acetonitrile, followed by vortexing and centrifugation. Once extracted, the samples were analyzed via LC/MS/MS (as described in bioanalysis section below). Non-compartmental-analysis module in WinNonlin™ (version 5.3) was used to assess pharmacokinetic parameters including maximal concentration (Cmax), time to Cmax (Tmax), area under the curve (AUClast), area extrapolated to infinity (AUC0-∞), terminal disposition rate constant (ke), and terminal half-life (t½).
(§2) Briefly, plasma samples were thawed on ice prior to extraction. Samples (50 μL) were extracted in 300 μL acetonitrile containing 1000 nM losartan as internal standard. For brain, 50 μL of the supernatant from homogenized tissue was extracted with 100 μL acetonitrile containing 1000 nM losartan as internal standard. Extracts were centrifuged at 16000×g at 4° C. for 10 minutes. Supernatants were transferred to a new siliconized tube and dried under N2 at 45° C. for 30 min. Samples were reconstituted with 100 μL of 30% acetonitrile, vortexed and centrifuged. Supernatants (95 μL) were transferred to a 250 μL polypropylene autosampler vials sealed with a Teflon cap and a volume of 10 μL was injected onto the ultra-performance liquid chromatography (UPLC) instrument for quantitative analysis using a temperature-controlled autosampler operating at 10° C.
(§3) The instrument was controlled by the Xcalibur software 2.3 (Thermo Scientific). Samples were introduced to the interface through Turbo Ion Spray with the temperature setting at 350° C.
(§4) Chromatographic analysis was performed using an Accela™ ultra high-performance system consisting of an analytical pump, and an autosampler coupled with TSQ Vantage mass spectrometer (Thermo Fisher Scientific Inc., Waltham Mass.).

[2] = Metabolic stability in mouse plasma; format: in vitro ADME; conditions: for Metabolic stability, Plasma (% remaining): mouse plasma, 10 μM
Protocol: The metabolic stability was evaluated using mouse plasma and mouse liver microsomes.

[3] = test system: Swiss Webster mice; assay: Mouse locomotor activity test; conditions: up to 30 mg/kg, versus cocaine
[4] = Phase I metabolic stability in mouse liver microsomes (NADPH); format: in vitro ADME; conditions: 10 μM
Protocol: (§5) Phase I and phase II metabolic stability assay for was conducted in mouse liver microsomes. For phase I metabolism, the reaction was carried out with 100 mM potassium phosphate buffer, pH 7.4, in the presence of NADPH regenerating system (1.3 mM NADPH, 3.3 mM glucose 6-phosphate, 3.3 mM MgCl2, 0.4 U/mL glucose-6-phosphate dehydrogenase, 50 μM sodium citrate). Reactions in duplicate were initiated by addition of the liver microsomes to the incubation mixture (compound final concentration was 10 μM; 0.5 mg/mL microsomes). For phase II glucuronidation reaction compound was added to TRIS-HCl buffer (50 mM, pH 7.5) with microsomes (0.5 mg/mL), along with MgCl2 (8 mM), and alamethicin (25 μg/mL) and pre-incubated at 37° C. The reaction was initiated (in duplicate) with UDPGA at a final concentration of 2 mM. Negative controls in the absence NADPH and UDPGA were carried for both phase I and phase II metabolism respectively, to determine the specific cofactor free degradation. […] At predetermined times (0, 15, 30 and 60 min) aliquots of the mixture were removed and the reaction quenched by addition of two times the volume of ice cold acetonitrile spiked with the internal standard. Compound disappearance was monitored over time using a liquid chromatography and tandem mass spectrometry (LC/MS/MS) method.
(§6) Compounds were separated on an Agilent 1290 UPLC system with a c18 column using a gradient run of 55:45-5:95 water:acetonitrile over 3.2 minutes and detected on an Agilent 6520 QTOF mass spectrometer.

[5] = Negative control: mouse liver microsomes without cofactors; format: in vitro ADME; conditions: for Metabolic stability, Negative Control (% remaining): microsomes without cofactors
Protocol: as §5, §6

[6] = Plasma pharmacokinetics in mice, 10 mg/kg i.v. and p.o.
Protocol: as §1, §2, §3, §4

[7] = Phase II (glucuronidation, UDPGA) metabolic stability in mouse liver microsomes; format: in vitro ADME
Protocol: as §5, §6

[8] = male, CD1, mouse, in vivo, iv, 10 mg/kg
[9] = male, CD1, mouse, in vivo, po, 10 mg/kg

Fc1ccc(C(SCCNCCCc2ccccc2)c2ccc(F)cc2)cc1 [Compound 4g, N-(2-((bis(4-fluorophenyl)methyl)thio)ethyl)-3-phenylpropan-1-amine]
concentration at 0.5 h ([1]; iv): 4780 ng/g | concentration at 2 h ([1]; iv): 14100 ng/g | concentration at 0.5 h ([1]; po): 369 ng/g | concentration at 2 h ([1]; po): 223 ng/g | brain penetrability ([1]; mouse, following both p.o. and i.v. dosing): excellent brain penetrability | Metabolic stability, Plasma (% remaining) ([2]; 0 min): 100% | Metabolic stability, Plasma (% remaining) ([2]; 15 min): 100% | Metabolic stability, Plasma (% remaining) ([2]; 30 min): 99% | Metabolic stability, Plasma (% remaining) ([2]; 60 min): 103% | stability in mouse plasma ([2]; over a period of 60 minutes): stable | locomotor stimulation (ambulatory distance) [3]: does not produce locomotor stimulation | Metabolic stability, Phase I (% remaining) ([4]; 0 min): 100% | Metabolic stability, Phase I (% remaining) ([4]; 30 min): 95% | Metabolic stability, Phase I (% remaining) ([4]; 60 min): 77% | Metabolic stability, Negative Control (% remaining) ([5]; 0 min): 100% | Metabolic stability, Negative Control (% remaining) ([5]; 15 min): 104% | Metabolic stability, Negative Control (% remaining) ([5]; 30 min): 97% | Metabolic stability, Negative Control (% remaining) ([5]; 60 min): 119% | metabolism in microsomes without the cofactors ([5]; mouse liver microsomes, no NADPH/UDPGA): No metabolism was observed | bioavailability ([6]; male, CD1, mouse, in vivo, 10 mg/kg, F % (absolute bioavailability), mouse, 10 mg/kg P.O. versus I.V.): ~10% | AUC(0-inf) [6, 8]: 2040 µg·h/mL | AUC(0-t) [6, 8]: 1960 ng·h/mL | Tmax [6, 8]: 4.8 min | AUC(0-inf) [6, 9]: 203 µg·h/mL | AUC(0-t) [6, 9]: 155 ng·h/mL | Tmax [6, 9]: 30 min | Ke ([6]; mouse plasma, 10 mg/kg I.V.): 0.6952 | Metabolic stability, Phase II (% remaining) ([7]; 0 min): 100% | Metabolic stability, Phase II (% remaining) ([7]; 15 min): 90% | Metabolic stability, Phase II (% remaining) ([7]; 30 min): 77% | Metabolic stability, Phase II (% remaining) ([7]; 60 min): 50%
